This is an account of results in paper PMC11436758, “Computer-aided drug design to generate a unique antibiotic family” (Nature Communications, 2024).

In brackets after ≈: the same amount, converted by molar mass. Several values for one entry are separate records, joined by “and”; a condition that tells them apart may be missing. Equal values may be shown once. Entries after “also recorded” stand apart in the source; their conditions may differ. Some results are limits rather than exact numbers.

For data set [1], the system named is E. coli ATCC 25922. The data set is described as follows: MIC alone and MIC of colistin in combination with DNM compounds. Format: cell-based. The settings on record: compound alone, bracket after colistin value is a range (0.25-2). How it is done:
(§1) The medium employed for the assay was Mueller Hinton II Broth (MHB II; Becton-Dickinson, Sparks, MD, USA). Agar plates used for the organisms were trypticase soy agar plus 5% sheep blood (BD; Sparks, MD, USA). MIC assay plates were prepared using the CLSI broth microdilution procedure. Automated liquid handlers (Multidrop 384, Biomek 2000 and Biomek FX) were used to conduct serial dilutions and liquid transfers. A standardized inoculum of each organism was prepared per CLSI methods. Suspensions were prepared to equal a 0.5 McFarland standard, followed by a 1:20 dilution in test media. The inocula were dispensed into sterile reservoirs divided by length (Beckman Colter) and the Biomek 2000 was used to inoculate the plates. Daughter plates were placed on the Biomek 2000 work surface in reverse orientation so that inoculation took place from low to high drug concentration. The Biomek 2000 delivered 10 μL of the diluted suspension into each well. These inoculations yielded a final cell concentration in the daughter plates of ~5 × 10^5 colony-forming units/mL in each well. The wells of the daughter plates ultimately contained 185 μL of broth, 5 μL of drug solution, and 10 μL of bacterial inoculum. Plates were covered with a sterile lid on the top plate, placed in plastic bags, and incubated at 35 °C for ~18 h. The microplates were viewed from the bottom using a plate viewer and the MIC was read. The MIC was recorded as the lowest concentration of drug that inhibited visible growth of the organism. Uninoculated solubility control plates were also observed for evidence of drug precipitation.
(§2) Compound K. pneumoniae A. baumannii E. coli P. aeruginosa […]
(§3) Supplementary Table 3. Minimum inhibitory concentration (MIC; µg/ml) of DNM
(§4) compounds that show potential synergy in combination with colistin. […]

For data set [2], the system named is K. pneumoniae MMX8390. The description is as above. It counts as cell-based. Particulars: compound alone. How it is done: as §1, §2, §3, §4
The subject of data set [3] is P. aeruginosa ATCC 27853. The description is as above. Format: cell-based. The settings on record: compound alone, bracket after colistin value is a range (0.25-4). How it is done:
as §1, §2, §3, §4

The test system of data set [4] is A. baumannii ATCC 19606. The description is as above. It counts as cell-based. Particulars: compound alone. How it is done: as §1, §2, §3, §4
The test system of data set [5] is MRSA (ATCC 33591). The data set is described as follows: Rabbit ischemic ear wound model of infection by MRSA, topical treatment. Format: in vivo, New Zealand White rabbits. The settings on record: for % wound closure / wound size (mean) / Wound size (mm2): Fig 2c. How it is done: New Zealand White rabbits from Charles River were employed for this study. Both male and female rabbits were used; sample size prevented disaggregation of data by sex. Investigators were blinded to group allocation, data collection, and data analysis. Food and water were given ad libidum and animals were acclimatized for 7 days with photoperiods of alternating 12 h light and dark at 21 °C in relative humidity of 40–50%. The formulation for delivery of DNM compounds was Glaxal base (WellSpring Pharmaceutical Canada Corp., Oakville, Canada). Formulation was performed by dissolving compound in Glaxal base to give final concentrations of 1% or 2% DNM compound (w/v). The analgesic (Buprenex 0.02 mg/kg sc) and anesthesia (isoflurane (0.5–5% with oxygen carrier 0.5–2 L/min) were used as required during procedures. An ischemia wound healing model was conducted surgically. Each wound was inoculated with 50 μl of 2 × 10^7 CFU/mL MRSA (ATCC #33591) and dressed. After 1 day, wounds were treated with either 50 μl control cream containing vehicle or 50 μl cream containing compound daily. Wounds were assessed and observations recorded using the Draize scoring system. Digital photographs of each wound were obtained and documented.

A short description of data set [6]: Histopathology (H&E) of treated rabbit ischemic ear wounds, dermal toxicity. Particulars: Suppl Fig 7, score per wound.
Procedure: Wounds were excised, fixed, and routine H&E staining was performed. Wounds were examined for pathology and scored in a blinded manner.
Post-wounding, under anesthesia, animals were euthanized with an intravenous injection of Beuthanasia-D at a dosage of 150 mg/kg of body weight. Specimens including the entire wound, along with ~2–3 mm of the normal unwounded skin margins were harvested. Each ear wound specimen was sectioned into halves. For one half of the wound, the wound was placed into a container with 10% neutral buffered formalin and processed for routine histological evaluation. Wounds were scored on a scale of 0–4 at the wound site for erythema, edema, inflammation, granulation, angiogenesis, and epithelialization. Wounds were characterized in a blinded manner by a board-certified member of the College of American Pathologists.
Data set [7] has as its system S. aureus (MSSA). The data set is described as follows: MIC, clinical and laboratory strains. Format: cell-based. How it is done:
as §1, with “organism.” for “organism. Uninoculated solubility control plates were also observed for evidence of drug precipitation.”

The test system of data set [8] is S. aureus (MRSA). The data set is described as follows: MIC, clinical and laboratory strains. Format: cell-based. How it is done:
as §1, with “organism.” for “organism. Uninoculated solubility control plates were also observed for evidence of drug precipitation.”

Data set [9] relates to S. aureus (VISA). Briefly: MIC, clinical and laboratory strains. It counts as cell-based. How it is done:
as §1, with “organism.” for “organism. Uninoculated solubility control plates were also observed for evidence of drug precipitation.”

Data set [10] relates to 102 ATCC strains and clinical isolates of Staphylococcus, Streptomyces, and Enterococcus. The data set is described as follows: MIC panel summary over all strains. Format: cell-based. Particulars: of 102 strains. How it is done: We also sought to determine if DNM0547 was bacteriostatic or bactericidal. Time kill experiments were carried out using increasing doses of DNM0547 against two different strains of MRSA.
as §1, with “organism.” for “organism. Uninoculated solubility control plates were also observed for evidence of drug precipitation.”

In the case of `CC(C)c1cc(Cl)ccc1-c1cc(C(N)=O)sc1-c1ccc(Cl)cc1C(C)C` [DNM0650], the MIC in [1], in data set [2], in [3] and in [4] was > 64 µg/mL throughout.

On to `Cc1cc(Cl)ccc1-c1cc(S(N)(=O)=O)sc1-c1ccc(Cl)cc1C` [DNM0658], for which the MIC in [1], in data set [2], in data set [3] and in data set [4] was > 64 µg/mL each time.

Turning to `C/C(=C\C(=O)OCCCCCCCCC(=O)O)C[C@@H]1OC[C@H](C[C@@H]2O[C@H]2[C@@H](C)[C@H](C)O)[C@@H](O)[C@H]1O` [mupirocin], in data set [5] (Fig 2b, individual wounds), the CFUs is 0 CFUs (6×) and 4120 CFUs. The “% wound closure” value in data set [5] (Day 1) was 0%; in data set [5] (Day 3) it was 3.64%; in data set [5] (Day 7), 10.3%; in data set [5] (Day 10), 22.68%; in data set [5] (Day 14) it was 43.29%; in [5] (Day 18), 53.8%. In addition, the “wound size (mean)” value in data set [5] (Day 1) was 34.3 mm2; in data set [5] (Day 3), 33.056 mm2; in data set [5] (Day 5), 31.872 mm2; in data set [5] (Day 7), 30.776 mm2; in data set [5] (Day 10), 26.526 mm2; in data set [5] (Day 14) it was 19.45 mm2. For the same compound, the “wound size (mean)” value in data set [5] (Day 18) stood at 15.838 mm2. Further, the “Wound size (mm2)” value in [5] (individual wounds, Day 1) was 36.53 mm2 and 30.25 mm2 and 32.45 mm2 and 37.03 mm2 and 35.24 mm2; in [5] (individual wounds, Day 3) it was 33.98 mm2 and 27.23 mm2 and 29.57 mm2 and 36.33 mm2 and 38.17 mm2; in data set [5] (individual wounds, Day 5) it was 33.31 mm2 and 25.96 mm2 and 29.21 mm2 and 35.69 mm2 and 35.19 mm2; in [5] (individual wounds, Day 7), 31.43 mm2 and 25.29 mm2 and 28.29 mm2 and 34.94 mm2 and 33.93 mm2; in data set [5] (individual wounds, Day 10), 30.25 mm2 and 23.34 mm2 and 26.6 mm2 and 26.26 mm2 and 26.18 mm2; in data set [5] (individual wounds, Day 14), 23.68 mm2 and 17.17 mm2 and 19.28 mm2 and 18.84 mm2 and 18.28 mm2. Further, the “Wound size (mm2)” value in [5] (individual wounds, Day 18) was 20.63 mm2 and 12.49 mm2 and 12.8 mm2 and 15.19 mm2 and 18.08 mm2. Moreover, in data set [5] (topical 2%), the “wound healing compared with control” value is “did not alter wound healing from control; also recorded: not statistically significant”. For the same compound, the Edema in data set [6] is on record as 2. The same compound came in with an Erythema in data set [6] of 2. The Inflammation in data set [6] was 3 and 4. The MIC was > 16 µg/mL in data set [7] (S. aureus (MSSA) 2127); 1 µg/mL (≈ 2 µM) in data set [7] (S. aureus (MSSA) 6167); 2 µg/mL (≈ 3.99 µM) in data set [7] (S. aureus (MSSA) 6168); 2 µg/mL (≈ 3.99 µM) in [7] (S. aureus (MSSA) 6170); 2 µg/mL (≈ 3.99 µM) in [7] (S. aureus (MSSA) 6316); 1 µg/mL (≈ 2 µM) in [7] (S. aureus (MSSA) 6317). In addition, the MIC in data set [7] (S. aureus (MSSA) 6318) was found to be 2 µg/mL (≈ 3.99 µM); in data set [7] (S. aureus (MSSA) 6499), 1 µg/mL (≈ 2 µM); in data set [7] (S. aureus (MSSA) 6500), 1 µg/mL (≈ 2 µM); in data set [7] (S. aureus (MSSA) 6502), 1 µg/mL (≈ 2 µM); in data set [8] (S. aureus (MRSA) 2167), 0.12 µg/mL (≈ 0.24 µM); in [8] (S. aureus (MRSA) 2168) it was 0.25 µg/mL (≈ 0.499 µM). For the same compound, the MIC in data set [8] (S. aureus (MRSA) 2169), in [8] (S. aureus (MRSA) 2170), in data set [8] (S. aureus (MRSA) 2171), in data set [8] (S. aureus (MRSA) 2293), in data set [8] (S. aureus (MRSA) 2294) and in [8] (S. aureus (MRSA) 2295) was 0.25 µg/mL (≈ 0.499 µM) throughout. Further, the MIC in data set [8] (S. aureus (MRSA) 2296) was 0.25 µg/mL (≈ 0.499 µM); in [8] (S. aureus (MRSA) 2297), 0.25 µg/mL (≈ 0.499 µM); in [8] (S. aureus (MRSA) 3880) it was > 16 µg/mL; in [8] (S. aureus (MRSA) 5373), 1 µg/mL (≈ 2 µM); in [8] (S. aureus (MRSA) 5666), 1 µg/mL (≈ 2 µM); in data set [8] (S. aureus (MRSA) 5702), 1 µg/mL (≈ 2 µM). Further, the MIC in [8] (S. aureus (MRSA) 5999) came out at 1 µg/mL (≈ 2 µM); in data set [8] (S. aureus (MRSA) 6165), 1 µg/mL (≈ 2 µM); in data set [8] (S. aureus (MRSA) 6169) it was 0.5 µg/mL (≈ 0.999 µM); in [8] (S. aureus (MRSA) 6174), 1 µg/mL (≈ 2 µM); in data set [8] (S. aureus (MRSA) 6311), 1 µg/mL (≈ 2 µM); in data set [8] (S. aureus (MRSA) 6312), 1 µg/mL (≈ 2 µM). Further, the MIC in [8] (S. aureus (MRSA) 6313), in data set [8] (S. aureus (MRSA) 6315), in data set [8] (S. aureus (MRSA) 6320), in data set [8] (S. aureus (MRSA) 6498), in data set [8] (S. aureus (MRSA) 6501) and in [8] (S. aureus (MRSA) 6505) was 1 µg/mL (≈ 2 µM) throughout. Moreover, the MIC in data set [8] (S. aureus (MRSA) 6506) is 1 µg/mL (≈ 2 µM); in data set [8] (S. aureus (MRSA) NRS382/2119), 1 µg/mL (≈ 2 µM); in [8] (S. aureus (MRSA) NRS383/2120) it was > 16 µg/mL; in [8] (S. aureus (MRSA) NRS384/2011) it was 1 µg/mL (≈ 2 µM); in data set [9] (S. aureus (VISA) 1724) it was 0.25 µg/mL (≈ 0.499 µM); in data set [9] (S. aureus (VISA) 2012), 1 µg/mL (≈ 2 µM). For the same compound, the minimum inhibitory concentration (MIC) in [9] (S. aureus (VISA) 2013) came out at 0.25 µg/mL (≈ 0.499 µM); in data set [9] (S. aureus (VISA) 2014), 0.5 µg/mL (≈ 0.999 µM); in [9] (S. aureus (VISA) 2015), 0.06 µg/mL (≈ 0.12 µM); in [9] (S. aureus (VISA) 2016) it was 0.25 µg/mL (≈ 0.499 µM); in data set [9] (S. aureus (VISA) 2017) it was 0.5 µg/mL (≈ 0.999 µM); in data set [9] (S. aureus (VISA) 2018), 0.12 µg/mL (≈ 0.24 µM). Further, the results for the MIC in [9] (S. aureus (VISA) 2019), in data set [9] (S. aureus (VISA) 2123) and in data set [9] (S. aureus (VISA) NRS1/1723) were 4 µg/mL (≈ 7.99 µM), 0.25 µg/mL (≈ 0.499 µM) and 0.25 µg/mL (≈ 0.499 µM), respectively. Further, the “number of strains tested with MIC not ≤ 2 μg/mL” value in data set [10] is on record as 26.

For colistin [reference compound], the MIC in data set [1] was found to be 0.25 µg/mL; in data set [2] it was 16 µg/mL; in [3], 0.25 µg/mL; in [4], 0.25 µg/mL.

For orientation: MIC means the least concentration at which growth counts as inhibited.
